“And” between values parts separate entries of the source, which are not always exact repeats. Identical values can stand only once.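 Grown in 96-well plates, cells were treated for 48 hours with each compound at five concentrations. Insufficient inhibition: endpoint recorded as highest concentration tested. GI50 = concentration required for 50% inhibition of growth. At the TGI there is no net growth.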
What was measured:
Assay in all cases: inhibition of tumour cell growth, NCI panel, 48 h
786-0 renal = tested on: 786-0 renal
A549 NSCLC = tested on: A549 NSCLC
ACHN renal = tested on: ACHN renal
CAKI-1 renal = tested on: CAKI-1 renal
HCC-2998 colon = tested on: HCC-2998 colon
HCT-15 colon = tested on: HCT-15 colon
OVCAR-4 ovarian = tested on: OVCAR-4 ovarian
SNB-19 CNS = tested on: SNB-19 CNS
TK-10 renal = tested on: TK-10 renal
UO-31 renal = tested on: UO-31 renal

Structure (SMILES) | GI50 (786-0 renal) | TGI (786-0 renal) | GI50 (A549 NSCLC) | TGI (A549 NSCLC) | GI50 (ACHN renal) | TGI (ACHN renal) | GI50 (CAKI-1 renal) | TGI (CAKI-1 renal) | GI50 (HCC-2998 colon) | TGI (HCC-2998 colon) | GI50 (HCT-15 colon) | TGI (HCT-15 colon) | GI50 (OVCAR-4 ovarian) | TGI (OVCAR-4 ovarian) | GI50 (SNB-19 CNS) | TGI (SNB-19 CNS) | GI50 (TK-10 renal) | TGI (TK-10 renal) | GI50 (UO-31 renal) | TGI (UO-31 renal)
CCc1nn2ncccc2c1-c1ccnc(NC2CC2)n1 | > 25 µM | > 25 µM | > 25 µM | > 25 µM | > 25 µM | > 25 µM | > 22.1 µM | > 25 µM | > 25 µM | > 25 µM | > 25 µM | > 25 µM | > 25 µM | > 25 µM | > 25 µM | > 25 µM | > 25 µM | > 25 µM | > 24 µM | > 25 µM
CN(C)CCCCCNc1c2ccccc2nc2cccc([N+](=O)[O-])c12 | – | 0.00798 µM | 0.00571 µM | 0.00235 µM | 0.00374 µM | 0.00325 µM | – | 0.0158 µM | 0.00237 µM | 0.0126 µM | 0.00218 µM and 0.00274 µM | – | 0.00339 µM | 0.00236 µM | – | > 0.0231 µM and 0.0317 µM | – | 0.0207 µM | 0.0125 µM | 0.0425 µM
CCN(CC)c1ccc(/C=N/NC(=O)CSc2nc3ccccc3c(=O)n2Cc2ccc(S(N)(=O)=O)cc2)c(O)c1 | 1.84 µM | > 100 µM | 1.57 µM | > 100 µM | 1.58 µM | > 100 µM | 1.02 µM | > 100 µM | 0.882 µM | > 100 µM | 3.62 µM | > 100 µM | 0.311 µM | > 100 µM | 2.1 µM | > 100 µM | 1.66 µM | > 100 µM | 2.89 µM | > 100 µM
Nc1ccc(-c2ccc3ncc4ccc(=O)n(-c5cccc(C(F)(F)F)c5)c4c3c2)cn1 | < 0.01 µM | 0.423 µM | < 0.01 µM | 2.6 µM | < 0.01 µM | – | < 0.01 µM | 1.55 µM | < 0.0118 µM | 1.6 µM | < 0.01 µM | 11.7 µM | < 0.01 µM | 0.0337 µM | < 0.013 µM | 52.3 µM | < 0.016 µM | 0.275 µM | < 0.01 µM | 2.39 µM
CC1=C(C(=O)Nc2ccccc2)C(c2cc(Cl)cc(Cl)c2)C(C(=O)Nc2ccccc2)=C(C)N1 | – | 22.9 µM | – | 58.8 µM | – | 47.2 µM | – | 31.6 µM | – | 25.7 µM | – | 18.6 µM | – | 19.2 µM | – | 27.5 µM | – | 33.6 µM | – | 26.9 µM
CCn1c(=N)sc2nc3ccccc3n2c1=O | – | > 100 µM | – | > 100 µM | – | > 100 µM | – | > 100 µM | – | > 100 µM | – | > 100 µM | – | > 100 µM | – | > 100 µM | – | > 100 µM | – | 33.3 µM
COc1cc(-c2cc3ncccc3c3[nH]c(=O)c4cccnc4c23)cc(OC)c1OC | 0.722 µM | > 100 µM | 1.28 µM | > 100 µM | 0.885 µM | > 100 µM | 0.663 µM | > 100 µM | 2.08 µM | > 100 µM | 0.683 µM | > 100 µM | 8.87 µM | > 100 µM | 0.981 µM | > 100 µM | 17.2 µM | > 100 µM | 1.09 µM | > 100 µM
CC(C)C(=S)N(C)O | – | > 100 µM | – | > 100 µM | – | > 100 µM | – | > 100 µM | – | > 100 µM | – | > 100 µM | – | > 100 µM | – | > 100 µM | – | > 91.4 µM | – | 50.2 µM
COc1ccc2c(c1)O/C(=C\c1cccc(OCC(=O)Nc3nc(C)c(C)s3)c1)C2=O | 0.715 µM | 2.08 µM | 2.18 µM | 6.43 µM | 2.28 µM | 7 µM | 1.06 µM | – | 9.43 µM | > 100 µM | 6.76 µM | > 100 µM | 12.8 µM | > 100 µM | 27.5 µM | > 100 µM | 5.41 µM | > 100 µM | 0.547 µM | 1.02 µM
NCCOc1ncccc1/C=C1\c2ccccc2-c2ccc([N+](=O)[O-])cc21 | 0.0268 µM | 0.139 µM | < 0.01 µM | 0.204 µM | 0.0235 µM | 0.119 µM | 0.0283 µM | 0.231 µM | 0.137 µM | 0.322 µM | 0.0266 µM | 0.871 µM | 0.194 µM | 0.827 µM | 0.0356 µM | 1.04 µM | 0.126 µM | 0.282 µM | 0.0439 µM | 0.186 µM
Cc1cn2c(/C=N/N=C(N)N)c(-c3ccncc3)nc2s1 | 15.8 µM | 29.3 µM | 17.6 µM | 32.1 µM | 18.5 µM | 32.5 µM | > 100 µM | > 100 µM | 14.6 µM | 27.7 µM | 44.1 µM | > 100 µM | 13.2 µM | 32 µM | 16.4 µM | 31.3 µM | 15 µM | 28.6 µM | 18.9 µM | 43.7 µM
C1CC2=C(C1)C1=S(S2)SC2=C1CCC2 | – | > 100 µM | – | > 100 µM | – | > 100 µM | – | > 100 µM | – | > 100 µM | – | > 100 µM | – | > 100 µM | – | > 100 µM | – | > 100 µM | – | > 100 µM
O=C(/C(=N/Nc1ccccc1)c1ccc([N+](=O)[O-])cc1)c1ccc([N+](=O)[O-])cc1 | – | > 100 µM | – | > 100 µM | – | > 100 µM | – | > 100 µM | – | > 100 µM | – | > 100 µM | – | > 100 µM | – | > 100 µM | – | > 100 µM | – | > 100 µM
Cc1nc(Sc2nc3ccc([N+](=O)[O-])cc3s2)sc1C | 1.78 µM | 6.1 µM | 10.4 µM | 22.7 µM | 1.61 µM | 3.81 µM | 1.9 µM | 8.03 µM | 12.5 µM | 25.2 µM | 0.731 µM | 3.51 µM | 1.35 µM | 9.81 µM | 8.41 µM | 21.9 µM | 2.05 µM | 7.87 µM | 1.49 µM | 4.17 µM
Cc1c(C)c2c(c(C)c1OCC(=O)O)CC[C@@](C)(CCC[C@@H](C)CCC[C@@H](C)CCCC(C)C)O2 | 93.3 µM | 185 µM | 24.4 µM | 107 µM | 53.1 µM | 112 µM | 76.7 µM | 151 µM | 102 µM | 224 µM | 40.8 µM | 120 µM | 59.6 µM | 136 µM | 95.8 µM | 196 µM | 85.6 µM | 154 µM | 84.1 µM | 152 µM
Cn1cc(C2=C(c3ccccc3C(F)(F)F)C(=O)NC2=O)c2ccccc21 | 9.16 µM | > 25 µM | 7.89 µM | > 25 µM | 8.06 µM | > 25 µM | 6.6 µM | > 25 µM | > 19.6 µM | > 25 µM | 9.59 µM | > 25 µM | 9.64 µM | > 25 µM | 21 µM | > 25 µM | 10.2 µM | > 25 µM | 7.84 µM | > 25 µM
O=C(Nc1ccc2c(c1)OCCO2)C(=O)c1c[nH]c2ccccc12 | 4.28 µM | 44.9 µM | 1.18 µM | > 100 µM | 5.19 µM | > 100 µM | 1.68 µM | > 100 µM | 1.37 µM | > 100 µM | 0.967 µM | > 100 µM | 3.88 µM | > 100 µM | 2.88 µM | 79.7 µM | 6.75 µM | 31.4 µM | 5.11 µM | > 71.4 µM
CCC(C)(O)c1cn(-c2ccc(S(=O)(=O)O)cc2)nn1 (stereo not drawn) | – | > 100 µM | – | > 100 µM | – | > 100 µM | – | > 100 µM | – | > 100 µM | – | > 100 µM | – | > 100 µM | – | > 100 µM | – | > 100 µM | – | > 100 µM
COc1ccc(-c2nc(N)c(C#N)c3c2CCOc2c-3ccc3ccccc23)cc1 | 17.2 µM | 48.3 µM | 28 µM | 76.7 µM | 10.1 µM | 22.6 µM | 3.32 µM | 19.6 µM | 56.1 µM | > 100 µM | 59.4 µM | > 100 µM | 1.43 µM | 9.38 µM | 24.2 µM | 91 µM | 21.5 µM | 53.2 µM | 49.9 µM | > 100 µM
COc1ccc(-c2nn3ncccc3c2-c2ccnc(Nc3ccc4c(c3)OCCO4)n2)cc1 | 8.38 µM | > 25 µM | 8.41 µM | > 25 µM | 2.86 µM | > 25 µM | 2.7 µM | > 24.1 µM | 11 µM | > 25 µM | 6.89 µM | > 25 µM | 9.19 µM | > 25 µM | 16.3 µM | > 25 µM | 4.54 µM | 18.5 µM | 2.19 µM | 16.7 µM
C/C(CC(=O)Nc1ccc(NC(=O)C/C(C)=N\NC(N)=O)cc1)=N/NC(N)=O | – | > 100 µM | – | > 100 µM | – | > 100 µM | – | > 100 µM | – | > 100 µM | – | > 62.5 µM | – | > 100 µM | – | > 100 µM | – | > 100 µM | – | > 100 µM
Cc1noc(C)c1-c1cnc2c(-c3ccc(C(=O)O)cc3)cn([C@@H](C)c3ccccn3)c2c1 | 2.13 µM | > 100 µM | 3.25 µM | > 100 µM | 1.38 µM | > 100 µM | 0.0745 µM | > 83.6 µM | 0.966 µM | 10.9 µM | 0.418 µM | > 100 µM | 0.772 µM | > 100 µM | 1.58 µM | > 100 µM | 0.405 µM | > 100 µM | 0.102 µM | > 55 µM
O=C(CN(/C=C/C(=O)C(F)(F)F)c1ccccc1)c1ccc(Cl)cc1 | 15.3 µM | 29.1 µM | 21.1 µM | 77.5 µM | 21.7 µM | 56.3 µM | 17.8 µM | 42.5 µM | 14.7 µM | 28.5 µM | 19.2 µM | 46 µM | 26.6 µM | 70.1 µM | 22 µM | 51.5 µM | 28 µM | 88.2 µM | 19.9 µM | 41.7 µM
C[C@H](NC(=O)c1c(C(F)F)nn(C)c1Oc1cccc(C(F)(F)F)c1)c1ccc(C(=O)O)cc1 | > 100 µM | > 100 µM | > 100 µM | > 100 µM | > 100 µM | > 100 µM | > 100 µM | > 100 µM | > 100 µM | > 100 µM | > 100 µM | > 100 µM | > 100 µM | > 100 µM | > 100 µM | > 100 µM | > 100 µM | > 100 µM | > 100 µM | > 100 µM
